Measured values: patent publication US8545884B2, “Solid pharmaceutical formulations comprising BIBW 2992” (Boehringer Ingelheim International GmbH, priority 2008, dated 2013)

What was measured:
[1] = Bulk densities (poured, tapped; Ph. Eur. 2.9.15) and Hausner factor of powders; format: physicochemical; settings: for Hausner Factor (ρT/ρP) / Poured density (ρP) / Tapped density (ρT): un-milled drug substance
Description: Bulk density is measured according to Ph. Eur. 2.9.15 (European Pharmacopoeia, 4. Ed.) as poured density. The tapped density is measured according to Ph. Eur. 2.9.15 (see also Voigt R., Lehrbuch der pharmazeutischen Technologie [Textbook of Pharmaceutical Technology], Verlag Chemie, 5th Edition, page 148). The Hausner factor is a measure for the flowability/compressibility of powders and ideally should be close to 1. […] They range from 0.12 to 0.40 g/mL, caused by different needle lengths (Table 2). The roller compaction step was introduced for densification of the material (see Table 3), which may have • a variability of the poured density between […] (see Table 1) and • a Hausner Factor between 1.05 and 1.61 (see Table 1).

[2] = Tablet content uniformity (RSD) before and after roller compaction and sieving; format: physicochemical; settings: roller compaction, Sieve A
[3] = Chemical stability of the API against moisture / wet granulation; format: physicochemical
[4] = Phase I pharmacokinetics of BIBW 2992 monotherapy in cancer patients with advanced solid tumors; format: in vivo, human (cancer patients)
Description: In four Phase I studies in cancer patients with various advanced solid tumors the pharmacokinetik (PK) characteristics of BIBW 2992 were analyzed. Representative for all of the studies and all the tested dose groups (10 to 100 mg) the 40 mg dose group from one trial is being described in more detail. […] BIBW 2992 plasma concentrations increased after oral administration with peak plasma concentrations mostly around 2-5 hours after dosing. Plasma concentrations declined within the next hours (up to 9 h after dosing), displaying a first disposition phase.
The variability (gCV=geometric coefficient of variation) of the plasma concentrations of the active substance at the different time points was 109-159% up to 9 hours after drug administration but 66.9 to 72.9% at later time points (24 hours after drug administration).

[5] = Phase I pharmacokinetics of BIBW 2992 together with docetaxel in cancer patients; format: in vivo, human (cancer patients); settings: once daily dosing, visual inspection
[6] = batch 1, roller compaction, Sieve A, Sieve B
[7] = batch 1, roller compaction, Sieve A, Sieve C
[8] = batch 1, roller compaction, Sieve A, no sieving 2
[9] = batch 2, roller compaction, Sieve A, Sieve C
[10] = batch 3, roller compaction, Sieve A, Sieve C
[11] = 10 to 100 mg, qd dosing, single dose and steady state

## CN(C)C/C=C/C(=O)Nc1cc2c(Nc3ccc(F)c(Cl)c3)ncnc2cc1O[C@H]1CCOC1.O=C(O)/C=C\C(=O)O.O=C(O)/C=C\C(=O)O [BIBW 2992 MA2]
[1]; Table 3, drug substance batch 1, before processing
  Poured density: 0.12 g/mL
[1]; Table 3, drug substance batch 2, before processing
  Poured density: 0.31 g/mL
[1]; Table 3, drug substance batch 3, before processing
  Poured density: 0.40 g/mL
[1]; batch 1, no roller compaction, no sieving
  Poured density of Final Blend: 0.40 g/mL
[1]; [6]
  Poured density of Compacted Intermediate of BIBW 2992 MA2: 0.29 g/mL
  Poured density of Final Blend: 0.53 g/mL
[1]; [7]
  Poured density of Compacted Intermediate of BIBW 2992 MA2: 0.24 g/mL
  Poured density of Final Blend: 0.53 g/mL
[1]; [8]
  Poured density of Compacted Intermediate of BIBW 2992 MA2: 0.33 g/mL
  Poured density of Final Blend: 0.56 g/mL
[1]; [9]
  Poured density of Compacted Intermediate of BIBW 2992 MA2: 0.41 g/mL
  Poured density of Final Blend: 0.60 g/mL
[1]; [10]
  Poured density of Compacted Intermediate of BIBW 2992 MA2: 0.36 g/mL
  Poured density of Final Blend: 0.60 g/mL
[1]; batch 0
  Hausner Factor (ρT/ρP): 1.20
  Poured density (ρP): 0.23 g/mL
  Tapped density (ρT): 0.28 g/mL
[1]; batch 1
  Hausner Factor (ρT/ρP): 1.33
  Poured density (ρP): 0.12 g/mL
  Tapped density (ρT): 0.16 g/mL
[1]; batch 2
  Hausner Factor (ρT/ρP): 1.08
  Poured density (ρP): 0.40 g/mL
  Tapped density (ρT): 0.43 g/mL
[1]; batch 3
  Hausner Factor (ρT/ρP): 1.26
  Poured density (ρP): 0.31 g/mL
  Tapped density (ρT): 0.39 g/mL
[2]; batch 1, Sieve B
  RSD- Tablet Content (High Dose): 1.4%
  RSD- Tablet Content (Low Dose): 3.6%
[2]; batch 1, Sieve C
  RSD- Tablet Content (High Dose): 1.0%
  RSD- Tablet Content (Low Dose): 1.4%
[2]; batch 1, no sieving 2
  RSD- Tablet Content (High Dose): 3.4%
  RSD- Tablet Content (Low Dose): 7.7%
[2]; batch 2, Sieve C
  RSD- Tablet Content (High Dose): 0.8%
[2]; batch 3, Sieve C
  RSD- Tablet Content (High Dose): 1.7%
[3]; drug substance as described in WO 2005/037824
  chemical stability against moisture: susceptibility against moisture
[3]; wet granulation processing
  stability during wet granulation: underwent hydrolytical decomposition and further degradation reaction

## CN(C)C/C=C/C(=O)Nc1cc2c(Nc3ccc(F)c(Cl)c3)ncnc2cc1O[C@H]1CCOC1 [BIBW 2992, 4-[(3-chloro-4-fluorophenyl)amino]-6-{[4-(N,N-dimethylamino)-1-oxo-2-buten-1-yl]amino}-7-((S)-tetrahydrofuran-3-yloxy)-quinazoline]
[4]; 40 mg dose group, n=17, time points up to 9 hours after drug administration
  variability (gCV) of the plasma concentrations: 109-159%
[4]; 40 mg once daily oral, day 27 of Treatment Period 1
  disposition kinetics: at least biexponential disposition kinetics
[4]; 40 mg once daily oral, day 27 of Treatment Period 1, n=17
  time of peak plasma concentrations after dosing: 2 to 5 h
[4]; [11]
  gMean AUCτ,ss dose dependence: increased in a dose-proportional manner
  gMean Cmax,ss dose dependence: increased in a dose-proportional manner
[4]; various clinical trials, visual inspection, data not shown
  Cpre,ss (plasma concentration before drug administration at steady state) dose dependence: no deviation from dose-proportionality
[5]
  AUC and Cmax dose dependence: no sign for a deviation from a dose proportional increase
